The text below walks through data of patent US20120083522A1, “MODULATION OF INFLAMMATORY RESPONSES BY FACTOR XI” (Isis Pharmaceuitcals, inc., priority 2009, published 2012).

In the oligonucleotide strings, read from the 5' end, every base follows the letter of its sugar. An asterisk marks phosphorothioate; unmarked linkages are phosphodiester. Other units and linkages are bracketed, terminal groups are in braces. A string of capitals states the bases alone. e = 2'-O-(2-methoxyethyl) (MOE); [5mC] = 5-methylcytosine; d = 2'-deoxy (DNA)

The test system of the first series is human Factor XI mRNA. The series can be described thus: Dose-dependent inhibition in HepG2 cells, lipofectin (Example 4). The series is classed as cell-based. As to conditions: 9.375 nM, 16 hours. Here is the method:
(§1) Cells were plated at a density of 10,000 cells per well and transfected using lipofectin reagent with 9.375 nM, 18.75 nM, 37.5 nM and 75 nM concentrations of antisense oligonucleotide, as specified in Table 9. After a treatment period of approximately 16 hours, RNA was isolated from the cells and Factor XI mRNA levels were measured by quantitative real-time PCR. Human Factor XI primer probe set RTS 2966 was used to measure mRNA levels. Factor XI mRNA levels were adjusted according to total RNA content, as measured by RIBOGREEN®. Results are presented as percent inhibition of Factor XI, relative to untreated control cells.
For the substance “416895 (antisense eT*eA*eT*dG*d[5mC]*d[5mC]*d[5mC]*dT*dT*d[5mC]*dA*dT*dG*dT*d[5mC]*dT*dA*eG*eG*eT) [compound 416895]”, the “percent inhibition of Factor XI mRNA, relative to untreated control cells” value amounted to 39%.
For the substance “416973 (antisense eT*eT*dA*dT*dG*d[5mC]*d[5mC]*d[5mC]*dT*dT*d[5mC]*dA*dT*dG*dT*e[5mC]*eT*eA*eG*eG) [compound 416973]”, the “percent inhibition of Factor XI mRNA, relative to untreated control cells” value is 60%.
Take “416827 (antisense eT*eA*eT*eG*e[5mC]*d[5mC]*d[5mC]*dT*dT*d[5mC]*dA*dT*dG*dT*d[5mC]*eT*eA*eG*eG*eT) [compound 416827]”: the “percent inhibition of Factor XI mRNA, relative to untreated control cells” value turned out to be 31%.
As for “416896 (antisense eT*eT*eA*dT*dG*d[5mC]*d[5mC]*d[5mC]*dT*dT*d[5mC]*dA*dT*dG*dT*d[5mC]*dT*eA*eG*eG) [compound 416896]”, the “percent inhibition of Factor XI mRNA, relative to untreated control cells” value turned out to be 22%.
Regarding “416945 (antisense eA*eA*dT*dG*dT*d[5mC]*dT*dT*dT*dG*dT*dT*dG*d[5mC]*dA*eA*eG*e[5mC]*eG*e[5mC]) [compound 416945]”, the “percent inhibition of Factor XI mRNA, relative to untreated control cells” value is given as 34%.

Staying with this series, now noted: 18.75 nM, 16 hours.
In the case of “416895 (antisense eT*eA*eT*dG*d[5mC]*d[5mC]*d[5mC]*dT*dT*d[5mC]*dA*dT*dG*dT*d[5mC]*dT*dA*eG*eG*eT) [compound 416895]”, the “percent inhibition of Factor XI mRNA, relative to untreated control cells” value turned out to be 57%.
Turning to “416973 (antisense eT*eT*dA*dT*dG*d[5mC]*d[5mC]*d[5mC]*dT*dT*d[5mC]*dA*dT*dG*dT*e[5mC]*eT*eA*eG*eG) [compound 416973]”, the “percent inhibition of Factor XI mRNA, relative to untreated control cells” value turned out to be 75%.
Regarding “416827 (antisense eT*eA*eT*eG*e[5mC]*d[5mC]*d[5mC]*dT*dT*d[5mC]*dA*dT*dG*dT*d[5mC]*eT*eA*eG*eG*eT) [compound 416827]”, the “percent inhibition of Factor XI mRNA, relative to untreated control cells” value worked out at 42%.
As for “416896 (antisense eT*eT*eA*dT*dG*d[5mC]*d[5mC]*d[5mC]*dT*dT*d[5mC]*dA*dT*dG*dT*d[5mC]*dT*eA*eG*eG) [compound 416896]”, the “percent inhibition of Factor XI mRNA, relative to untreated control cells” value stood at 39%.
Consider “416945 (antisense eA*eA*dT*dG*dT*d[5mC]*dT*dT*dT*dG*dT*dT*dG*d[5mC]*dA*eA*eG*e[5mC]*eG*e[5mC]) [compound 416945]”, for which the “percent inhibition of Factor XI mRNA, relative to untreated control cells” value worked out at 45%.

Still in this series, the particulars now being: 37.5 nM, 16 hours.
As to “416895 (antisense eT*eA*eT*dG*d[5mC]*d[5mC]*d[5mC]*dT*dT*d[5mC]*dA*dT*dG*dT*d[5mC]*dT*dA*eG*eG*eT) [compound 416895]”, the “percent inhibition of Factor XI mRNA, relative to untreated control cells” value came out at 66%.
As to “416973 (antisense eT*eT*dA*dT*dG*d[5mC]*d[5mC]*d[5mC]*dT*dT*d[5mC]*dA*dT*dG*dT*e[5mC]*eT*eA*eG*eG) [compound 416973]”, the “percent inhibition of Factor XI mRNA, relative to untreated control cells” value was 85%.
The same measure, in the same setting: to “416827 (antisense eT*eA*eT*eG*e[5mC]*d[5mC]*d[5mC]*dT*dT*d[5mC]*dA*dT*dG*dT*d[5mC]*eT*eA*eG*eG*eT) [compound 416827]” belongs 62%; to “416896 (antisense eT*eT*eA*dT*dG*d[5mC]*d[5mC]*d[5mC]*dT*dT*d[5mC]*dA*dT*dG*dT*d[5mC]*dT*eA*eG*eG) [compound 416896]”, 57%.
As for “416945 (antisense eA*eA*dT*dG*dT*d[5mC]*dT*dT*dT*dG*dT*dT*dG*d[5mC]*dA*eA*eG*e[5mC]*eG*e[5mC]) [compound 416945]”, the “percent inhibition of Factor XI mRNA, relative to untreated control cells” value is recorded as 62%.

Staying with this series, now noted: 75 nM, 16 hours.
Turning to “416895 (antisense eT*eA*eT*dG*d[5mC]*d[5mC]*d[5mC]*dT*dT*d[5mC]*dA*dT*dG*dT*d[5mC]*dT*dA*eG*eG*eT) [compound 416895]”, the “percent inhibition of Factor XI mRNA, relative to untreated control cells” value was 71%.
On the same count and under the same terms, the result for “416973 (antisense eT*eT*dA*dT*dG*d[5mC]*d[5mC]*d[5mC]*dT*dT*d[5mC]*dA*dT*dG*dT*e[5mC]*eT*eA*eG*eG) [compound 416973]” reads 87%; that for “416827 (antisense eT*eA*eT*eG*e[5mC]*d[5mC]*d[5mC]*dT*dT*d[5mC]*dA*dT*dG*dT*d[5mC]*eT*eA*eG*eG*eT) [compound 416827]”, 77%.
As for “416896 (antisense eT*eT*eA*dT*dG*d[5mC]*d[5mC]*d[5mC]*dT*dT*d[5mC]*dA*dT*dG*dT*d[5mC]*dT*eA*eG*eG) [compound 416896]”, the “percent inhibition of Factor XI mRNA, relative to untreated control cells” value is 81%.
Consider “416945 (antisense eA*eA*dT*dG*dT*d[5mC]*dT*dT*dT*dG*dT*dT*dG*d[5mC]*dA*eA*eG*e[5mC]*eG*e[5mC]) [compound 416945]”, for which the “percent inhibition of Factor XI mRNA, relative to untreated control cells” value was determined as 65%.

In the next series the test system is human Factor XI mRNA. The series can be described thus: Dose-dependent inhibition in HepG2 cells, electroporation (Example 4). The series is classed as cell-based. The following applies: 0.7 μM, 16 hours. Here is the method:
as §1, with “The gapmers were also transfected via electroporation and their dose dependent inhibition of human Factor XI mRNA was measured. Cells” for “Cells”, “20,000” for “10,000”, “via electroporation” for “using lipofectin reagent”, “0.7 μM, 2.2 μM, 6.7 μM,” for “9.375 nM, 18.75 nM, 37.5 nM”, “20 μM” for “75 nM”, “10.” for “9.”
Take “416895 (antisense eT*eA*eT*dG*d[5mC]*d[5mC]*d[5mC]*dT*dT*d[5mC]*dA*dT*dG*dT*d[5mC]*dT*dA*eG*eG*eT) [compound 416895]”: the “percent inhibition of Factor XI mRNA, relative to untreated control cells” value came to 0%.
For the substance “416973 (antisense eT*eT*dA*dT*dG*d[5mC]*d[5mC]*d[5mC]*dT*dT*d[5mC]*dA*dT*dG*dT*e[5mC]*eT*eA*eG*eG) [compound 416973]”, the “percent inhibition of Factor XI mRNA, relative to untreated control cells” value is on record as 20%.
For the substance “416827 (antisense eT*eA*eT*eG*e[5mC]*d[5mC]*d[5mC]*dT*dT*d[5mC]*dA*dT*dG*dT*d[5mC]*eT*eA*eG*eG*eT) [compound 416827]”, the “percent inhibition of Factor XI mRNA, relative to untreated control cells” value is reported as 37%.
On to “416896 (antisense eT*eT*eA*dT*dG*d[5mC]*d[5mC]*d[5mC]*dT*dT*d[5mC]*dA*dT*dG*dT*d[5mC]*dT*eA*eG*eG) [compound 416896]”, for which the “percent inhibition of Factor XI mRNA, relative to untreated control cells” value is on record as 12%.
For “416945 (antisense eA*eA*dT*dG*dT*d[5mC]*dT*dT*dT*dG*dT*dT*dG*d[5mC]*dA*eA*eG*e[5mC]*eG*e[5mC]) [compound 416945]”, the “percent inhibition of Factor XI mRNA, relative to untreated control cells” value is 48%.

The same series, now with this note: 2.2 μM, 16 hours.
As to “416895 (antisense eT*eA*eT*dG*d[5mC]*d[5mC]*d[5mC]*dT*dT*d[5mC]*dA*dT*dG*dT*d[5mC]*dT*dA*eG*eG*eT) [compound 416895]”, the “percent inhibition of Factor XI mRNA, relative to untreated control cells” value amounted to 62%.
Still for that read-out and setting: the result for “416973 (antisense eT*eT*dA*dT*dG*d[5mC]*d[5mC]*d[5mC]*dT*dT*d[5mC]*dA*dT*dG*dT*e[5mC]*eT*eA*eG*eG) [compound 416973]” reads 48%.
On the same count and under the same terms, the result for “416827 (antisense eT*eA*eT*eG*e[5mC]*d[5mC]*d[5mC]*dT*dT*d[5mC]*dA*dT*dG*dT*d[5mC]*eT*eA*eG*eG*eT) [compound 416827]” reads 68%; that for “416896 (antisense eT*eT*eA*dT*dG*d[5mC]*d[5mC]*d[5mC]*dT*dT*d[5mC]*dA*dT*dG*dT*d[5mC]*dT*eA*eG*eG) [compound 416896]”, 35%.
Turning to “416945 (antisense eA*eA*dT*dG*dT*d[5mC]*dT*dT*dT*dG*dT*dT*dG*d[5mC]*dA*eA*eG*e[5mC]*eG*e[5mC]) [compound 416945]”, the “percent inhibition of Factor XI mRNA, relative to untreated control cells” value was determined as 70%.

The series is the same for the next values; noted with them: 6.7 μM, 16 hours.
For the substance “416895 (antisense eT*eA*eT*dG*d[5mC]*d[5mC]*d[5mC]*dT*dT*d[5mC]*dA*dT*dG*dT*d[5mC]*dT*dA*eG*eG*eT) [compound 416895]”, the “percent inhibition of Factor XI mRNA, relative to untreated control cells” value is recorded as 70%.
For the substance “416973 (antisense eT*eT*dA*dT*dG*d[5mC]*d[5mC]*d[5mC]*dT*dT*d[5mC]*dA*dT*dG*dT*e[5mC]*eT*eA*eG*eG) [compound 416973]”, the “percent inhibition of Factor XI mRNA, relative to untreated control cells” value turned out to be 86%.
Take “416827 (antisense eT*eA*eT*eG*e[5mC]*d[5mC]*d[5mC]*dT*dT*d[5mC]*dA*dT*dG*dT*d[5mC]*eT*eA*eG*eG*eT) [compound 416827]”: the “percent inhibition of Factor XI mRNA, relative to untreated control cells” value amounted to 87%.
On to “416896 (antisense eT*eT*eA*dT*dG*d[5mC]*d[5mC]*d[5mC]*dT*dT*d[5mC]*dA*dT*dG*dT*d[5mC]*dT*eA*eG*eG) [compound 416896]”, for which the “percent inhibition of Factor XI mRNA, relative to untreated control cells” value is recorded as 81%.
In the case of “416945 (antisense eA*eA*dT*dG*dT*d[5mC]*dT*dT*dT*dG*dT*dT*dG*d[5mC]*dA*eA*eG*e[5mC]*eG*e[5mC]) [compound 416945]”, the “percent inhibition of Factor XI mRNA, relative to untreated control cells” value was determined as 81%.

The same series, now with this note: 20 μM, 16 hours.
“416895 (antisense eT*eA*eT*dG*d[5mC]*d[5mC]*d[5mC]*dT*dT*d[5mC]*dA*dT*dG*dT*d[5mC]*dT*dA*eG*eG*eT) [compound 416895]”: the “percent inhibition of Factor XI mRNA, relative to untreated control cells” value was determined as 91%.
Regarding “416973 (antisense eT*eT*dA*dT*dG*d[5mC]*d[5mC]*d[5mC]*dT*dT*d[5mC]*dA*dT*dG*dT*e[5mC]*eT*eA*eG*eG) [compound 416973]”, the “percent inhibition of Factor XI mRNA, relative to untreated control cells” value is 93%.
“416827 (antisense eT*eA*eT*eG*e[5mC]*d[5mC]*d[5mC]*dT*dT*d[5mC]*dA*dT*dG*dT*d[5mC]*eT*eA*eG*eG*eT) [compound 416827]”: the “percent inhibition of Factor XI mRNA, relative to untreated control cells” value is 92%.
Regarding “416896 (antisense eT*eT*eA*dT*dG*d[5mC]*d[5mC]*d[5mC]*dT*dT*d[5mC]*dA*dT*dG*dT*d[5mC]*dT*eA*eG*eG) [compound 416896]”, the “percent inhibition of Factor XI mRNA, relative to untreated control cells” value was 89%.
With “416945 (antisense eA*eA*dT*dG*dT*d[5mC]*dT*dT*dT*dG*dT*dT*dG*d[5mC]*dA*eA*eG*e[5mC]*eG*e[5mC]) [compound 416945]”, the “percent inhibition of Factor XI mRNA, relative to untreated control cells” value is recorded as 88%.
